Assays:
[1] = tested on: MIA PaCa-2; assay: Anti-austerity activity against human MIA PaCa-2 cells assessed as cell killing in nutrient deprived medium; format: functional
[2] = tested on: PANC-1; assay: Anti-austerity activity against human PANC-1 cells assessed as cell killing in nutrient deprived medium; format: functional
[3] = Anti-austerity activity against human KLM-1 cells assessed as cell killing in nutrient deprived medium; format: functional
[4] = tested on: PSN1; assay: Anti-austerity activity against human PSN1 cells assessed as cell killing in nutrient deprived medium; format: functional
[5] = target: RAC-alpha serine/threonine-protein kinase (Homo sapiens) (UniProt P31749); assay: Inhibition of Akt in human PANC-1 cells assessed as reduction in phosphorylation at Ser473 incubated for 6 hrs by Western blot analysis; format: cell-based; conditions: dose 1-10 µM
Chain of RAC-alpha serine/threonine-protein kinase (Homo sapiens) (P31749 whole entry): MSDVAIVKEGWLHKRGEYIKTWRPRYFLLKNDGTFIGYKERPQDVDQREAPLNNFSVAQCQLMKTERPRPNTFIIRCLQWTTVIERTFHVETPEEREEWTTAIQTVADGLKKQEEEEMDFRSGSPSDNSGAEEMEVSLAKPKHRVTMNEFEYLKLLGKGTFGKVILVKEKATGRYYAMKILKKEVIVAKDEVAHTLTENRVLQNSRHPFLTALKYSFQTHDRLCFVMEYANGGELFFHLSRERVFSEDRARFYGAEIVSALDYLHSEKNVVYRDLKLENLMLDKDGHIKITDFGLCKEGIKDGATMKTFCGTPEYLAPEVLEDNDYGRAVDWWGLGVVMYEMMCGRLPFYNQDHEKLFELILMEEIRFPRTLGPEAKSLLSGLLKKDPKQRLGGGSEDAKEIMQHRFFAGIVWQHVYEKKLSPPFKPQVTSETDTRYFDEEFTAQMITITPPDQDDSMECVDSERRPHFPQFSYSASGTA

[6] = tested on: PANC-1; assay: Inhibition of colony formation in human PANC-1 cells in nutrient rich DMEM medium measured treated for 24 hrs followed by replaced with fresh medium measured after 10 days by crystal violet staining based assay; format: functional, cell-based; conditions: dose 6.25-25 µM
[7] = tested on: PANC-1; assay: Antimigratory activity against human PANC1 cells assessed as wound area at 25 uM cultured in nutrient rich DMEM medium imaged every 10 mins for 24 hrs by quantitative real-time imaging based wound healing assay (reference value: 35%); format: functional
[8] = tested on: PANC-1; assay: Induction of apoptosis in human PANC-1 cells assessed as cell morphology by measuring red fluorescence incubated for 24 hrs in nutrient deprived medium by acridine orange and ethidium bromide dye based fluorescence microscopy analysis; format: functional; conditions: dose 1-5 µM
[9] = target: Serine/threonine-protein kinase mTOR (Homo sapiens) (UniProt P42345); assay: Inhibition of mTOR in human PANC-1 cells assessed as reduction in phosphorylation at S2448 incubated for 6 hrs by Western blot analysis; format: cell-based; conditions: dose 1-10 µM

Row | inhibition [5] | inhibition [9] | SMILES | PC50 [1] [µM] | PC50 [2] [µM] | PC50 [3] [µM] | PC50 [4] [µM] | inhibition [6] | Activity [7] [%] | Activity [8]
1 | – | – | CC(C)=CCc1cc(-c2coc3cc(O)c(CC=C(C)C)c(O)c3c2=O)cc(O)c1O | 0.8 | 0.7 | 0.9 | 0.7 | – | – | –
2 | Dose-Dependent Effect | Dose-Dependent Effect | COc1c(O)cc(-c2coc3c(CC=C(C)C)c(O)cc(O)c3c2=O)cc1CC=C(C)C | 1.2 | 1 | 1.6 | 1.8 | Dose-Dependent Effect | 74 | Dose-Dependent Effect
3 | – | – | CC(C)=CCc1cc(-c2coc3cc(O)c(CC=C(C)C)c(O)c3c2=O)ccc1O [LUPALBIGENIN] | 1.3 | 1 | 1 | 1.5 | – | – | –
4 | – | – | COc1cc(C[C@H]2C(=O)OC[C@@H]2Cc2ccc(OC)c(OC)c2)ccc1O [ARCTIGENIN] | 1.9 | 0.7 | 0.8 | 0.7 | – | – | –
5 | – | – | CC(C)=CCc1cc(-c2coc3c(CC=C(C)C)c(O)cc(O)c3c2=O)cc(O)c1O | 10.9 | 10 | 10.1 | 10.2 | – | – | –

Reference: ChEMBL document CHEMBL4814009, “A new anti-austerity agent, 4'-O-methylgrynullarin from Derris scandens induces PANC-1 human pancreatic cancer cell death under nutrition starvation via inhibition of Akt/mTOR pathway” (2021)
